Where “and” joins values, the source holds several entries; their conditions need not be identical. Equal entries are not always repeated. Where two headings read alike, the source gives them in different places.

For one data set, the system named is TA 1537. In words: Ames Test, strain TA 1537. The source says: The test used amino acid-dependent strains of Salmonella typhimurium and Escherichia coli to detect point mutations which involved substitution, addition or deletion of one or a few DNA base pairs. Point mutations were introduced in the histidine (Salmonella typhimurium) or the tryptophan (Escherichia coli) operon, making the tester strains incapable of producing these amino acids. The test detected mutations that revert the mutations present in the bacteria, restoring the functional capability to synthesize histidine or tryptophan. The revertant bacteria were detected by the ability to grow in the absence of the amino acid required by the parent test strain. A mutagenic potential of a tested compound was assessed by exposing these bacterial strains to different concentrations of the compounds and estimating number of revertant colonies grown in the absence (trace quantities) of the amino acid.
DMSO was used as the negative control.
For each experiment, tester strain cultures were grown overnight in Oxoid nutrient broth #2 at 37° C. with shaking at 235 rpm to a density of 1-2×10^9 colony forming units/mL (OD540˜2).
The tester strain (10 μL of night culture) was mixed with the test agent (10 µL of the DMSO stock) and GM liquid medium (30 μL). The obtained mixture was incubated at room temperature for 5 min in a sterile 1.5 mL tube. Then, to the tube was added 200 μL of molten top agar stored at 44° C. to prevent solidifying. After mixing with a pipette, the mixture was poured onto the surface of a GM agar plate (2.0 mL of GM agar per plate). After solidifying the top agar, the plate was inverted and incubated at 37° C. for 48 hours. Then, results were expressed as number of revertant colonies per plate.

The target of the next data set is CYP 2D6 (Homo sapiens (Human), UniProt P10635). In words: in vitro. The note with it: Inhibition. On the procedure: (§1) CYP450 inhibition profiling provides valuable information regarding any possible drug-drug interactions for a test compound.
Sequence of CYP 2D6 (P10635 whole entry): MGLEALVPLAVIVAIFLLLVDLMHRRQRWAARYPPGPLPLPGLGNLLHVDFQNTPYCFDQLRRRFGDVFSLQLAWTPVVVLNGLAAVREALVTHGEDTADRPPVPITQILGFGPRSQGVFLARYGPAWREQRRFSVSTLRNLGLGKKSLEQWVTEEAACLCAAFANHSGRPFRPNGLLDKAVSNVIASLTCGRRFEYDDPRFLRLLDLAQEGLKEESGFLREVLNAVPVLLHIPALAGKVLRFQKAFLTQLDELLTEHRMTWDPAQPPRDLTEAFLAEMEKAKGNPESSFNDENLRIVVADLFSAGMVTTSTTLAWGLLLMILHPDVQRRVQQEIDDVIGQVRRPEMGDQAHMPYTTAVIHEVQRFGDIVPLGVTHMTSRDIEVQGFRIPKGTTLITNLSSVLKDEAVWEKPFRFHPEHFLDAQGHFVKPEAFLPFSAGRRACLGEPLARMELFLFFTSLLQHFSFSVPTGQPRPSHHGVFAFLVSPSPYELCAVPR
(§2) All experiments were performed using P450-Glo™ Assay Systems (Promega) in accordance with the manufacturer's protocols. The P450-Glo™ Assays provide a luminescent readout-based method for measuring cytochrome P450 activity. A conventional cytochrome P450 reaction was performed by incubating the cytochrome P450 and a luminogenic cytochrome P450 substrate. The substrates in the P450-Glo™ assays are derivatives of beetle luciferin. The derivatives themselves are not substrates for luciferase but are converted by cytochrome P450s to luciferin, which in turn reacts with luciferase to produce light. The amount of light produced was directly proportional to cytochrome P450 activity. All test points were performed in quadruplicates. Control membranes (without CYPs) represented the Negative control (baseline).
(§3) The following reference compounds were used to assess CYP inhibition: […]

The next data set addresses FLAG-Parkin C431S (Homo sapiens (Human), UniProt O60260, C431S). Kind of data set: Ub-charging of FLAG-Parkin C431S (MSD assay). It is filed as cell-based. The note with it: 5 μM, 2 h before 3.5 μM CCCP. As for the experimental part:
Ubiquitin charging of Parkin was monitored by ELISA-like MesoScale Discovery assay that uses electrochemiluminescence. Plates were coated with Flag antibody and incubated with lysates from 3×FLAG-Parkin C431S cells that had been pretreated for 2 h with 5 μM of Compounds 1, 2, 3, 4, and 31 or DMSO (left, −) before incubating them for another 2 h with (+) or without (−) low-dose (3.5 μM) CCCP. Positive control (PC) cells were treated with 10 μM CCCP. After washing, pS65-Ub antibody was added together with a sulfo-tagged anti-rabbit antibody. Values were normalized to the PC (10 μM CCCP) and negative control (−). Statistical analysis was performed by one-way ANOVA with Tukey's post-hoc test. ****, p<0.0001.
For ELISA assays, 96-well standard bind plates (Mesoscale Discovery) were coated with antibodies (FLAG, Sigma, F3165 or pSer65-Ub, both 1:250) in bicarbonate buffer (15 mM Na2CO3, 35 mM NaHCO3, pH 9.4) overnight and blocked with 5% BSA in TBS containing 0.02% Tween-20 (TBST). For Parkin Ub-charging, cell lysates were prepared in RIPA buffer (50 mM Tris pH 8.0, 150 mM NaCl, 1% NP-40, 0.5% deoxycholate, 0.1% sodium dodecyl sulphate (SDS)). 25 μg of lysates were added to the plates and incubated for 2 h. To quantify pSer65-Ub, cell lysates were prepared in NP-40 buffer (50 mM Tris pH 7.6, 150 mM NaCl, and 0.5% NP-40) and diluted to 0.18% NP-40 with 1% BSA in TBST. 6.25 μg of lysates were added to the plates overnight and incubated at 4° C. After primary antibody incubation, plates were washed and incubated with mouse detection antibodies (Ub, CST, #3933 or Ub, Millipore, MAB 150 both 1:250) for 1 h at RT. Secondary sulfo-tag conjugated antibodies were incubated for 1 h in 1% BSA/TBST before plates were measured in 2× READ buffer using a Mesoscale Discovery Sector Imager 2400 (both Mesoscale Discovery).

Data set [1] in a line: Metabolic stability in mouse liver microsomes. It is filed as in vitro ADME. Particulars: 2 μM, 40 minutes, mouse hepatic microsomes. On the procedure:
Metabolic stability was defined as the percentage of parent compound lost over time in the presence of a metabolically active test system, such as rodent liver microsomal fractions.
Mouse hepatic microsomes were isolated from pooled (50), perfused livers of BALB/c male mice according to the standard protocol (Hill, J. R. in Current Protocols in Pharmacology 7.8.1-7.8.11, Wiley Interscience, 2003). The batch of microsomes was tested for quality control using imipramine, propranolol and verapamil as reference compounds. Microsomal incubations were carried out in 96-well plates in 5 aliquots of 40 μL each (one for each time point). Liver microsomal incubation medium contained PBS (100 mM, pH 7.4), MgCl2 (3.3 mM), NADPH (3 mM), glucose-6-phosphate (5.3 mM), glucose-6-phosphate dehydrogenase (0.67 units/mL) with 0.42 mg of liver microsomal protein per mL. Control incubations were performed replacing the NADPH-cofactor system with PBS. Compounds 1-4 and 31 (2 μM, final solvent concentration 1.6%) were each incubated with microsomes at 37° C. while shaking at […]. Incubations were performed in duplicates. Five time points over 40 minutes were analyzed. The reactions were stopped by adding 12 volumes of 90% acetonitrile-water to incubation aliquots, followed by protein sedimentation by centrifuging at 5500 rpm for 3 minutes. Supernatants were analyzed using the HPLC system coupled with tandem mass spectrometer. The elimination constant (kel), half-life (t1/2) and intrinsic clearance (Clint) were determined in a plot of ln(AUC) versus time, using linear regression analysis:
[formula] [formula] In order to indicate the quality of the linear regression analysis, the R (correlation coefficient) values were provided. In some cases, the last time point was excluded from the calculations to ensure acceptable logarithmic linearity of decay. C. Results

A further data set has as its target CYP 2C9 (Homo sapiens (Human), UniProt P11712). Kind of data set: P450-Glo CYP450 inhibition, CYP 2C9. It is filed as in vitro ADME. The note with it: CYP 2C9, 10 μM; for inhibition at 10 µM: human, P450-Glo Assay System (Promega), CYP 2C9 membranes. As for the experimental part:
as §1, §2, §3

[2] abbreviates: TA 1537, 50 μM (row printed 100; conc. column shifted).
[3] abbreviates: TA 1537, 100 μM (row printed 200; conc. column shifted).
The mark [4] stands for this setting: TA 1537, 200 μM (row printed 300; conc. column shifted).
Where [5] appears, read: read-out: Inhibition, % (individual replicates).

Sequence of CYP 2C9 (P11712 whole entry): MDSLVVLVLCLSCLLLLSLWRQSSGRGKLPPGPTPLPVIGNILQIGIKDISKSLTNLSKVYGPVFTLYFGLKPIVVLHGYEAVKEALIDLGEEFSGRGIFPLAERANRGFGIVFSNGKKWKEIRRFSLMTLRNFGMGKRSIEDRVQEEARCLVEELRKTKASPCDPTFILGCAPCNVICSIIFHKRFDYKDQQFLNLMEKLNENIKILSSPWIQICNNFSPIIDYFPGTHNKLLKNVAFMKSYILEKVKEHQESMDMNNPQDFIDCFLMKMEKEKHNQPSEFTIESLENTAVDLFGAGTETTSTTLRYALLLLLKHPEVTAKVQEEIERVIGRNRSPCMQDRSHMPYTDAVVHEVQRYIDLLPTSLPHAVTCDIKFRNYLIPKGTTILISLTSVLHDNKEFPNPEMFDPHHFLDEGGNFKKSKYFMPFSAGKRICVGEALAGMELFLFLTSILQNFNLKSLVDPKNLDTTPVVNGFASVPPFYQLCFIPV

For `O=C(Cn1cnc2c1CCCC2)Nc1ccc(-c2ccccc2)cc1` [Compound 1], the “Fold increase (over baseline)” value is recorded as 0.23 with TA 1537 (setting [2]), 0.45 in the data set on TA 1537 (setting [3]) and 0.45 in the data set on TA 1537 (setting [4]). Also, the entries for the “Mean ± SD” value in the data set with TA 1537 (setting [2]) and in the data set with TA 1537 (setting [3]) were 0.5 ± 0.7 revertant colonies per plate and 1 ± 1.41 revertant colonies per plate, respectively. For the same compound, the inhibition at 10 µM against CYP 2D6 (% (individual replicates)) is 18.5%; against CYP 2D6 (% Mean) it was 17%; on CYP 2C9 (read-out: Inhibition, % Mean), 24%. For the same compound, the “Ub-charging of FLAG-Parkin C431S (MSD assay)” value (“Ub-charging” below) on FLAG-Parkin C431S was “enhanced Ub-charging”. The “metabolic stability” value in data set [1] is on record as “moderate stability”. In addition, the “Inhibition, % (individual replicates)” value at CYP 2C9 is 40.6% and 11.1% and 15.7% and 28.5%.

Regarding `CC(C)c1nccn1CC(=O)Nc1ccc(-c2ccccc2)cc1` [Compound 2], the “Fold increase (over baseline)” value with TA 1537 (setting [2]) is reported as 0.68; in the data set with TA 1537 (setting [3]), 0.45; in the data set on TA 1537 (setting [4]), 0.23. Further, the figures for the “Mean ± SD” value in the data set with TA 1537 (setting [2]) and in the data set with TA 1537 (setting [3]) were 1.5 ± 2.12 revertant colonies per plate and 1 ± 0 revertant colonies per plate, respectively. Further, the inhibition at 10 µM against CYP 2D6 (% Mean) was 17.3%; at CYP 2C9 (setting [5]), 36.6%; at CYP 2C9 (read-out: Inhibition, % Mean), 28.4%. In addition, at FLAG-Parkin C431S, the “Ub-charging” value is “enhanced Ub-charging”. Further, the “metabolic stability” value in data set [1] is listed as “moderate stability”. For the same compound, the “Inhibition, % (individual replicates)” value at CYP 2C9 is 30.3% and 25.4% and 21.4%.

As to `CC(C)(C)Sc1ccc(NC(=O)Cn2ccnc2)cc1` [Compound 3], the “Fold increase (over baseline)” value was determined as 0.45 with TA 1537 (setting [2]), 0.23 with TA 1537 (setting [3]) and 5.68 in the data set with TA 1537 (setting [4]). Further, the “Mean ± SD” value in the data set on TA 1537 (setting [2]) is recorded as 1 ± 1.41 revertant colonies per plate; in the data set on TA 1537 (setting [3]), 0.5 ± 0.7 revertant colonies per plate. Also, the inhibition at 10 µM at CYP 2D6 (% (individual replicates)) amounted to 98.9%; against CYP 2D6 (% Mean) it was 99.7%; on CYP 2C9 (setting [5]) it was 96.2%; on CYP 2C9 (read-out: Inhibition, % Mean), 97.6%. Besides, the “Ub-charging” value on FLAG-Parkin C431S is listed as “enhanced Ub-charging”. Besides, the “metabolic stability” value in data set [1] was “high metabolic stability”. Moreover, the “Inhibition, % (individual replicates)” value at CYP 2C9 is 98.8% and 98.0% and 97.4%.

In the case of `O=C(Cn1ccnc1-c1ccccn1)Nc1ccc(-c2ccccc2)cc1` [Compound 4], the entries for the “Fold increase (over baseline)” value with TA 1537 (setting [2]), in the data set on TA 1537 (setting [3]) and in the data set on TA 1537 (setting [4]) were 0.23, 0 and 0.23, respectively. Moreover, the “Mean ± SD” value is on record as 0.5 ± 0.7 revertant colonies per plate with TA 1537 (setting [2]) and 0 ± 0 revertant colonies per plate in the data set with TA 1537 (setting [3]). In addition, the inhibition at 10 µM was found to be 18.4% against CYP 2D6 (% Mean) and 8.2% at CYP 2C9 (read-out: Inhibition, % Mean). Besides, the “Ub-charging” value at FLAG-Parkin C431S is “enhanced Ub-charging”. Further, the “metabolic stability” value in data set [1] was “low stability”. The “Inhibition, % (individual replicates)” value at CYP 2C9 is 27.3% and 11.9% and 4.6% and −11.1%.

Turning to `Cc1nc2c(c(N3CCCN(Cc4ccccc4)CC3)n1)CCCC2` [Compound 31], the “Fold increase (over baseline)” value in the data set with TA 1537 (setting [2]) is listed as 0.45; in the data set on TA 1537 (setting [3]), 0; in the data set on TA 1537 (setting [4]), 0.23. The “Mean ± SD” value is listed as 1 ± 1.41 revertant colonies per plate in the data set with TA 1537 (setting [2]) and 0 ± 0 revertant colonies per plate in the data set with TA 1537 (setting [3]). Moreover, the inhibition at 10 µM was found to be 60.6% against CYP 2D6 (% Mean) and 14.5% at CYP 2C9 (read-out: Inhibition, % Mean). Besides, the “Ub-charging” value on FLAG-Parkin C431S was “enhanced Ub-charging”. In data set [1], the “metabolic stability” value was “low stability”. On CYP 2C9, the “Inhibition, % (individual replicates)” value is 50.4% and −18.3% and 11.9% and 13.7%.

These data come from US11401255B2, “Small molecule activators of Parkin enzyme function” (Mayo Foundation for Medical Education and Research, priority 2016, dated 2022).
